Experimental data from patent US4272529A, “O-Alcoxycarbonylphenyl esters of anthranilic acid with therapeutical activity, method for their preparation and related pharmaceutical composition” (Simes S.p.A., priority 1979, dated 1981).
“And” between values parts separate entries of the source, which are not always exact repeats. Equal entries are not always repeated. Where two headings read alike, the source gives them in different places.

Columns and labels:
[1] = test system: carrageenin induced edema in the rat; assay: Inhibition of the carrageenin induced edema in the rat, further series (right rear paw vs left rear paw); assay type: in vivo; details: for Inhibition of the carrageenin induced edema: 3 hours after carrageenin
Experimental: The volume difference between the two paws was compared with the values of a control group. In this case too, the carrageenin was injected one hour after the oral administration of the substances being tested as an aqueous suspension; the edema was evaluated 3 hours after the carrageenin injection.

[2] = test system: gastric tissues in the rat
Experimental: (§1) According to the second experimental model of adjuvant induced arthritis, there were studied the effects of the tested compounds in the disease already developed for 14 days; the substances were daily administered to groups of six rats for each dosage, from the 14th to the 18th day. […] There was also investigated the irritating property of the compound with respect to the gastric tissues in the rat.
The substances were administered as an aqueous suspension and the animals ware sacrificed after either 4 or 24 hours; the stomachs were removed, opened, washed under tap water and examined.
As regards the 4 hour test (Table 7), the following scoring was used, relating to the hemorrhage degree:
1=one or two points of light hemorrhage
2=some points of light hemorrhage
4=very serious hemorrhages.
In this case too the sum of the scores of three rats for each dosage is reported.

[3] = test system: adjuvant induced arthritis in the rat; assay: Adjuvant induced arthritis in the developing phase; assay type: in vivo, Lewis rats; details: for Paw volume, injected paw (3rd day) / Paw volume, non injected paw (14th day): unit assumed
Experimental: In the first one, relating to the developing arthritis (Table 4), groups of six Lewis rats have been tested for each dosage; a group was used as the control. Suspensions of the compound being tested were administered for 14 days, starting on the same day of the adjuvant inoculation (0.3 mg of Mycobacterium butyricum in 0.1 ml of mineral oil) in the plantar surface of the right rear paw. The body weights and the volumes of both paws were measured at the third and fourteenth days; the body weights were taken as the toxicity indexes; the paw volumes were used for the calculation of the percent inhibition of the swelling as determined by the adjuvant induced arthritis (D. Walz et al., J. Pharmacol. Exper. Therap., 178, 223, 1971).

[4] = test system: adjuvant induced arthritis in the rat; details: for Non injected paw, 18th day, inhibition % / Non injected paw, 18th day, volume: daily 14th to 18th day
Text: as §1

[5] = Toxicity in the rat; details: in vivo
Experimental: In the rat too the toxicity of compound I is very low (4,500 mg/kg).

[6] = test system: mouse; details: in vivo
[7] = test system: carragenin induced edema in the paw of rat; assay: Carragenin induced edema in the paw of rat, 50% inhibiting oral dose; assay type: in vivo; details: for ED50: 1 hour before carrageenin, 3 to 4 hours after carrageenin
Experimental: The edema was induced by injecting the carrageenin (0.1 ml of the 1% suspension in physiological solution) in the plantar aponeurosis of the rear paw of the rat one hour after the oral administration of the tested substances; the edema inhibition was evaluated, 3 to 4 hours after the carrageenin injection, from the difference between the volumes of the paw before and after the carragenin injection with respect to a group of control animals.

[8] = in vivo; details: mouse, po
[9] = test system: gastric tissues in the rat; assay: Acute gastric irritation in the rat (24 hours); assay type: in vivo; details: for Acute gastric irritation score: sum of scores (0-4) of three rats
Experimental: The following score scale was used for the 24 hour test (Table 6): 0=no lesion or hemorrhage 1=one or two light lesions with hemorrhage 2=some light lesions with hemorrhage 3=some lesions with hemorrhage. […] 4=very serious lesions with hemorrhage. There were used three rats per each dosage and the sum of the scores was made.

## CC(=O)Oc1ccccc1C(=O)O [Acetylsalicylic acid, acetylsalicylic acid]
[1]; 50 mg/kg os
  Inhibition of the carrageenin induced edema: 12%
[1]; 100 mg/kg os
  Inhibition of the carrageenin induced edema: 35%
[1]; 200 mg/kg os
  Inhibition of the carrageenin induced edema: 43%
[2]; 150 mg/kg os, 4 hours, sum of hemorrhage scores (0-4) of three rats
  Acute gastric irritation score: 7
[3]; 100 mg/kg os
  Inhibition %, injected paw (3rd day): 30%
  Inhibition %, non injected paw (14th day): 33%
  Paw volume, injected paw (3rd day): 1.65 mL
  Paw volume, non injected paw (14th day): 1.49 mL
[3]; 200 mg/kg os
  Inhibition %, injected paw (3rd day): 40%
  Inhibition %, non injected paw (14th day): 63%
  Paw volume, injected paw (3rd day): 1.53 mL
  Paw volume, non injected paw (14th day): 1.26 mL
[4]; 100 mg/kg os
  Non injected paw, 18th day, inhibition %: 37%
  Non injected paw, 18th day, volume: 2.10
[4]; 200 mg/kg os
  Non injected paw, 18th day, inhibition %: 47%
  Non injected paw, 18th day, volume: 1.93

## COC(=O)c1ccccc1OC(=O)c1ccccc1Nc1cccc(C(F)(F)F)c1 [Compound I, N-m-trifluoromethyl-phenylanthranilate of O-methoxycarbonylphenyl]
[1]; 1 mg/kg os
  Inhibition of the carrageenin induced edema: 0%
[1]; 1.5 mg/kg os
  Inhibition of the carrageenin induced edema: 24%
[1]; 5 mg/kg os
  Inhibition of the carrageenin induced edema: 21%
[1]; 10 mg/kg os
  Inhibition of the carrageenin induced edema: 34%
[1]; 25 mg/kg os
  Inhibition of the carrageenin induced edema: 42%
[1]; 50 mg/kg os
  Inhibition of the carrageenin induced edema: 52%
[1]; Rattus norvegicus, po, os, dose for which a 30% inhibition is obtained, read-out: ED30 (approximately)
  ED30: ~8 mg/kg
[1]; rat, oral, compared with reference drugs
  Activity in carrageenin induced edema (in words): higher than that of aspirin and phenylbutazone, and lower than that of indomethacin
[2]; rat, in vivo
  Ulcerogenic action (in words): highly less ulcerogenic than indomethacin and than acetylsalicylic acid
[3]; 5 mg/kg os
  Inhibition %, injected paw (3rd day): 48%
  Inhibition %, non injected paw (14th day): 10%
  Paw volume, injected paw (3rd day): 1.5 mL
  Paw volume, non injected paw (14th day): 1.64 mL
[3]; 10 mg/kg os
  Inhibition %, injected paw (3rd day): 53%
  Inhibition %, non injected paw (14th day): 47%
  Paw volume, injected paw (3rd day): 1.53 mL
  Paw volume, non injected paw (14th day): 1.47 mL
[3]; 25 mg/kg os
  Inhibition %, injected paw (3rd day): 36%
  Inhibition %, non injected paw (14th day): 35%
  Paw volume, injected paw (3rd day): 1.79 mL
  Paw volume, non injected paw (14th day): 1.67 mL
[3]; index of poor toxicity
  Increase of the weight of the rats (in words): normal
[3]; rat, in vivo
  Inhibiting effect in developing arthritis (in words): strong inhibiting effect
[5]
  LD50: 4500 mg/kg
[6]
  Acute toxicity (in words): relevantly less toxic than the reference substances as well as than their mixture
[7]
  ED50: 176 mg/kg and 420 µmol/kg
[7]; in terms of molar doses
  Anti-inflammatory activity (in words): like that of the flufenamic acid and higher than that of the methyl salicylate and that of the equimolar mixture of methyl salicylate and of flufenamic acid
[8]
  LD50: 9500 mg/kg and 22800 µmol/kg
[4]; 5 mg/kg os
  Non injected paw, 18th day, inhibition %: 27%
  Non injected paw, 18th day, volume: 2.16
[4]; 10 mg/kg os
  Non injected paw, 18th day, inhibition %: 46%
  Non injected paw, 18th day, volume: 1.82
[4]; 25 mg/kg os
  Non injected paw, 18th day, inhibition %: 100%
  Non injected paw, 18th day, volume: 1.04
[4]; compared with reference drugs
  Activity in already developed arthritis (in words): more active than acetylsalicylic acid and than phenylbutazone
[9]; 25 mg/kg os
  Acute gastric irritation score: 1
[9]; 50 mg/kg os
  Acute gastric irritation score: 1
[9]; 100 mg/kg os
  Acute gastric irritation score: 2
[9]; 200 mg/kg os
  Acute gastric irritation score: 1
[9]; 400 mg/kg os
  Acute gastric irritation score: 1
[9]; 800 mg/kg os
  Acute gastric irritation score: 3
[9]; 1600 mg/kg os
  Acute gastric irritation score: 2
[9]; compared with reference drugs
  Ulcerogenic / gastric irritating action (in words): highly less ulcerogenic than indomethacin and than acetylsalicylic acid

## O=C(O)c1ccccc1Nc1cccc(C(F)(F)F)c1 [Flufenamic acid, flufenamic acid]
[7]
  ED50: 112 mg/kg and 400 µmol/kg
[8]
  LD50: 875 mg/kg and 3100 µmol/kg

## COc1ccc2c(c1)c(CC(=O)O)c(C)n2C(=O)c1ccc(Cl)cc1 [Indomethacin, indomethacin]
[1]; 5 mg/kg os
  Inhibition of the carrageenin induced edema: 40%
[3]; 1 mg/kg os
  Inhibition %, injected paw (3rd day): 39%
  Inhibition %, non injected paw (14th day): 32%
  Paw volume, injected paw (3rd day): 1.63 mL
  Paw volume, non injected paw (14th day): 1.55 mL
[4]; 1 mg/kg os
  Non injected paw, 18th day, inhibition %: 38%
  Non injected paw, 18th day, volume: 2.06
[9]; 40 mg/kg os
  Acute gastric irritation score: 5

## COC(=O)c1ccccc1O [Methyl salicylate, methyl salicylate]
[7]
  ED50: 289 mg/kg and 1900 µmol/kg
[8]
  LD50: 1160 mg/kg and 7600 µmol/kg

## CCCCC1C(=O)N(c2ccccc2)N(c2ccccc2)C1=O [Phenylbutazone, phenylbutazone]
[1]; 50 mg/kg os
  Inhibition of the carrageenin induced edema: 34%
[3]; 25 mg/kg os
  Inhibition %, injected paw (3rd day): 39%
  Inhibition %, non injected paw (14th day): 42%
  Paw volume, injected paw (3rd day): 1.66 mL
  Paw volume, non injected paw (14th day): 1.52 mL
[4]; 25 mg/kg os
  Non injected paw, 18th day, inhibition %: 46%
  Non injected paw, 18th day, volume: 1.95
